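Growth conditions: 96-well plates. Treatment: test compound, 48 hours, 5 concentrations. Analysis: linear interpolation between bracketing concentrations; unreached endpoints set to highest concentration. Abbreviation: GI50, concentration required for 50% inhibition of growth.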 Calls of active or inactive are those of the source. Cut-off read from the data, not from the text of the source: active = GI50 up to about 1.1 µM and inactive = higher.
Tests used:
Assay in all cases: NCI anticancer screen, dose series, 48 h
HOP-92 = system: HOP-92
SK-MEL-2 = system: SK-MEL-2
U-251 = system: U-251
OVCAR-8 = system: OVCAR-8
CCRF-CEM = system: CCRF-CEM
SW-620 = system: SW-620
SK-MEL-28 = system: SK-MEL-28
A549 = system: A549
RPMI-8226 = system: RPMI-8226
IGROV-1 = system: IGROV-1
HT-29 = system: HT-29
Malme-3M = system: Malme-3M
HCT-15 = system: HCT-15
NCI-H522 = system: NCI-H522
M14 = system: M14

SMILES	GI50 (HOP-92)	GI50 (SK-MEL-2)	GI50 (U-251)	GI50 (OVCAR-8)	GI50 (CCRF-CEM)	GI50 (SW-620)	GI50 (SK-MEL-28)	GI50 (A549)	GI50 (RPMI-8226)	GI50 (IGROV-1)	GI50 (HT-29)	GI50 (Malme-3M)	GI50 (HCT-15)	GI50 (NCI-H522)	GI50 (M14)
Clc1ccc2c(c1)C1C(CO2)C(c2ccccc2)=NN1c1ccccc1 (configuration not stated)	18.6 µM (inactive)	26.9 µM (inactive)	34.8 µM (inactive)	28.6 µM (inactive)	24.9 µM (inactive)	39.7 µM (inactive)	54.1 µM (inactive)	32.7 µM (inactive)	12.4 µM (inactive)	22.9 µM (inactive)	76.9 µM (inactive)	43 µM (inactive)	–	–	–
C=CCCC(O)c1cc(C)c(O)c(C)c1 (configuration not stated)	–	> 100 µM (inactive)	> 100 µM (inactive)	> 100 µM (inactive)	> 100 µM (inactive)	> 100 µM (inactive)	> 100 µM (inactive)	> 100 µM (inactive)	> 100 µM (inactive)	> 100 µM (inactive)	–	> 100 µM (inactive)	> 100 µM	> 100 µM (inactive)	> 100 µM (inactive)
CCCCCCCCCCCCCCCC(=O)OCC1OC(n2cc(F)c(=O)[nH]c2=O)C(NC(=O)OCc2ccccc2)C(O)C1O (configuration not stated)	15.9 µM (inactive)	16 µM (inactive)	15.9 µM (inactive)	17.7 µM (inactive)	11 µM (inactive)	26.9 µM (inactive)	–	18.9 µM (inactive)	15.7 µM (inactive)	20.9 µM (inactive)	17.8 µM (inactive)	2.79 µM (inactive)	18.5 µM	–	17 µM (inactive)
CCOC(=O)C1(C)CCC(C(=O)OC)C1=O (configuration not stated)	> 100 µM (inactive)	> 100 µM (inactive)	67.1 µM (inactive)	> 100 µM (inactive)	21.9 µM (inactive)	–	> 100 µM (inactive)	> 100 µM (inactive)	> 100 µM (inactive)	> 100 µM (inactive)	65.5 µM (inactive)	> 100 µM (inactive)	20.2 µM	17.1 µM (inactive)	> 100 µM (inactive)
O=C1C2Cc3ccccc3CN2C(=O)N1CCN1CCCC1 (configuration not stated)	–	> 100 µM (inactive)	> 100 µM (inactive)	> 100 µM (inactive)	> 100 µM (inactive)	> 100 µM (inactive)	> 100 µM (inactive)	> 100 µM (inactive)	> 100 µM (inactive)	> 100 µM (inactive)	–	> 100 µM (inactive)	> 100 µM	> 100 µM (inactive)	> 100 µM (inactive)
CN1/C(=N\c2ccccc2)S/C1=N/c1ccccc1	10.2 µM (inactive)	27.2 µM (inactive)	> 100 µM (inactive)	> 100 µM (inactive)	69.3 µM (inactive)	> 100 µM (inactive)	> 100 µM (inactive)	86.1 µM (inactive)	39.5 µM (inactive)	> 100 µM (inactive)	55.5 µM (inactive)	23.1 µM (inactive)	90.8 µM	14.4 µM (inactive)	72.1 µM (inactive)
C[C@]12CC=CC(=O)[C@@]1(C)CCC(=O)C2	> 100 µM (inactive)	> 100 µM (inactive)	> 100 µM (inactive)	> 100 µM (inactive)	> 100 µM (inactive)	> 100 µM (inactive)	> 100 µM (inactive)	> 100 µM (inactive)	–	> 100 µM (inactive)	> 100 µM (inactive)	> 100 µM (inactive)	–	> 100 µM (inactive)	> 100 µM (inactive)
C=C1C2C[C@@H]3OC4CC5O[C@]6(CC5OC4C(C)C3OC(=O)CC3CC[C@@H]4OC5C7OC8C[C@](CCC9CC(=C)[C@H](CCC(C[C@H]1C)O2)O9)(OC7C4O3)O[C@@H]85)C[C@@H]1O[C@@]2(CC(C)[C@@H]3OC(CC(=O)CCO)C(O)C[C@@H]3O2)CC(C)[C@@H]1O6 (some centres not stated)	< 0.001 µM (active)	< 0.001 µM (active)	< 0.001 µM (active)	< 0.001 µM (active)	< 0.001 µM (active)	< 0.001 µM (active)	–	< 0.001 µM (active)	–	< 0.001 µM (active)	–	< 0.001 µM (active)	< 0.001 µM	< 0.001 µM (active)	< 0.001 µM (active)
O=C(CCC(=O)Nc1ccc(Cl)c(Cl)c1)CC(=O)c1ccc(F)cc1	> 100 µM (inactive)	–	> 100 µM (inactive)	> 100 µM (inactive)	> 100 µM (inactive)	> 100 µM (inactive)	> 100 µM (inactive)	> 100 µM (inactive)	–	> 100 µM (inactive)	> 100 µM (inactive)	> 100 µM (inactive)	–	–	> 100 µM (inactive)
O=C1CCC(O)=C1O	> 100 µM (inactive)	> 100 µM (inactive)	> 100 µM (inactive)	> 100 µM (inactive)	> 100 µM (inactive)	> 100 µM (inactive)	> 100 µM (inactive)	> 100 µM (inactive)	> 100 µM (inactive)	> 100 µM (inactive)	> 100 µM (inactive)	> 100 µM (inactive)	> 100 µM	> 100 µM (inactive)	> 100 µM (inactive)
O=C1CCC(=O)N1Cc1ccccc1/N=[N+](\[O-])c1ccccc1CN1C(=O)CCC1=O	–	> 100 µM (inactive)	> 100 µM (inactive)	> 100 µM (inactive)	> 100 µM (inactive)	> 100 µM (inactive)	> 100 µM (inactive)	> 100 µM (inactive)	> 100 µM (inactive)	> 100 µM (inactive)	> 100 µM (inactive)	> 100 µM (inactive)	> 100 µM	> 100 µM (inactive)	> 100 µM (inactive)
Brc1ccc(-c2nnc(-c3nn(-c4ccccc4)c4nc5ccccc5nc34)o2)cc1	> 100 µM (inactive)	60 µM (inactive)	> 100 µM (inactive)	> 100 µM (inactive)	26.1 µM (inactive)	> 100 µM (inactive)	> 100 µM (inactive)	96.4 µM (inactive)	30.5 µM (inactive)	> 100 µM (inactive)	> 100 µM (inactive)	–	–	> 100 µM (inactive)	> 100 µM (inactive)
CSc1nc(C)cc(=O)n1C1OC(COC(C)=O)C(OC(C)=O)C(OC(C)=O)C1OC(C)=O (configuration not stated)	–	53.3 µM (inactive)	> 100 µM (inactive)	> 100 µM (inactive)	> 100 µM (inactive)	> 100 µM (inactive)	> 100 µM (inactive)	> 100 µM (inactive)	> 100 µM (inactive)	> 100 µM (inactive)	> 100 µM (inactive)	> 100 µM (inactive)	> 100 µM	> 100 µM (inactive)	> 100 µM (inactive)
COc1cc2c(cc1O)CC13CCC(=O)N1CCc1cc(OC)c(O)c-2c13 (configuration not stated)	> 68.1 µM (inactive)	–	–	> 68.1 µM (inactive)	> 68.1 µM (inactive)	> 68.1 µM (inactive)	> 68.1 µM (inactive)	> 68.1 µM (inactive)	> 68.1 µM (inactive)	> 68.1 µM (inactive)	> 68.1 µM (inactive)	> 68.1 µM (inactive)	> 68.1 µM	–	> 68.1 µM (inactive)
COc1ccc(/C=C/CO)cc1OC	56.8 µM (inactive)	> 100 µM (inactive)	> 100 µM (inactive)	> 100 µM (inactive)	–	> 100 µM (inactive)	> 100 µM (inactive)	> 100 µM (inactive)	> 100 µM (inactive)	> 100 µM (inactive)	> 100 µM (inactive)	> 100 µM (inactive)	> 100 µM	–	–
C=C(C)C1CC2C(C)=C(OC(C)=O)C1n1c(=O)c3cc4ccccc4cc3c(=O)n12 (configuration not stated)	28.6 µM (inactive)	> 100 µM (inactive)	63.1 µM (inactive)	> 68.7 µM (inactive)	–	> 71.4 µM (inactive)	> 100 µM (inactive)	> 72.3 µM (inactive)	36 µM (inactive)	> 77.1 µM (inactive)	> 80.9 µM (inactive)	> 89.3 µM (inactive)	57.5 µM	51.5 µM (inactive)	> 100 µM (inactive)
O=c1/c(=C/c2ccc3c(c2)OCO3)sc2nnc(-c3ccco3)n12	–	> 100 µM (inactive)	> 100 µM (inactive)	> 100 µM (inactive)	> 100 µM (inactive)	> 100 µM (inactive)	> 100 µM (inactive)	> 100 µM (inactive)	> 100 µM (inactive)	> 100 µM (inactive)	–	> 100 µM (inactive)	–	> 100 µM (inactive)	> 100 µM (inactive)
Cc1nnc(N/N=C(/C(=O)C(C#N)c2ccc(Cl)cc2)C(C#N)c2ccc(Cl)cc2)n1N (configuration not stated)	> 100 µM (inactive)	18.2 µM (inactive)	–	20 µM (inactive)	35.6 µM (inactive)	18.8 µM (inactive)	18.7 µM (inactive)	20.1 µM (inactive)	16.5 µM (inactive)	–	20.4 µM (inactive)	19.4 µM (inactive)	19.7 µM	16.6 µM (inactive)	20.7 µM (inactive)
NCCOCCOCC(=O)O	> 100 µM (inactive)	> 100 µM (inactive)	> 100 µM (inactive)	> 100 µM (inactive)	–	> 100 µM (inactive)	> 100 µM (inactive)	> 100 µM (inactive)	> 100 µM (inactive)	> 100 µM (inactive)	> 100 µM (inactive)	> 100 µM (inactive)	> 100 µM	> 100 µM (inactive)	–
COc1cc(/C=C/C(=N\NC(=O)c2ccccc2)c2sc(Nc3ccc(Cl)c(Cl)c3)nc2C)ccc1O	< 0.01 µM (active)	26.2 µM (inactive)	31.9 µM (inactive)	33.3 µM (inactive)	27.9 µM (inactive)	40.4 µM (inactive)	40.6 µM (inactive)	31.7 µM (inactive)	–	35.6 µM (inactive)	28.9 µM (inactive)	29.4 µM (inactive)	31.9 µM	17 µM (inactive)	31 µM (inactive)

Source: ChEMBL document CHEMBL1201862, “PubChem BioAssay data set” (2004)
